Source: ChEMBL document CHEMBL1201862, “PubChem BioAssay data set” (2004)
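Following 48 hours of exposure in 96-well plates, responses at five concentrations were used to interpolate endpoints linearly. GI50 marks 50% less growth.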 Calls of active or inactive are those of the source. Rule as the data show it: active = GI50 up to about 1.1 µM and inactive = higher.

Columns and labels:
Test in all cases: inhibition of tumour cell growth, NCI panel, 48 h
NCI-H226 = system: NCI-H226
KM12 = system: KM12
CCRF-CEM = system: CCRF-CEM
K562 = system: K562
OVCAR-4 = system: OVCAR-4
HOP-92 = system: HOP-92
SK-MEL-2 = system: SK-MEL-2
SK-MEL-28 = system: SK-MEL-28
LOX IMVI = system: LOX IMVI
OVCAR-3 = system: OVCAR-3
KM-20L2 = system: KM-20L2
HCT-116 = system: HCT-116
NCI-H522 = system: NCI-H522
OVCAR-5 = system: OVCAR-5
CAKI-1 = system: CAKI-1
786-0 = system: 786-0
HCC 2998 = system: HCC 2998
IGROV-1 = system: IGROV-1
U-251 = system: U-251
HL-60 = system: HL-60
UACC-257 = system: UACC-257
RPMI-8226 = system: RPMI-8226
HOP-62 = system: HOP-62
ACHN = system: ACHN
DMS-114 = system: DMS-114
SK-MEL-5 = system: SK-MEL-5
OVCAR-8 = system: OVCAR-8
SK-OV-3 = system: SK-OV-3
M14 = system: M14
SNB-75 = system: SNB-75
RXF 393 = system: RXF 393
UO-31 = system: UO-31
MOLT-4 = system: MOLT-4
SNB-19 = system: SNB-19
XF498 = system: XF498
A498 = system: A498
SN12C = system: SN12C
SF-295 = system: SF-295
SF-539 = system: SF-539
UACC-62 = system: UACC-62
DMS-273 = system: DMS-273
HCT-15 = system: HCT-15
NCI-H460 = system: NCI-H460
SNB-78 = system: SNB-78
COLO 205 = system: COLO 205
SF-268 = system: SF-268
Malme-3M = system: Malme-3M
M19-MEL = system: M19-MEL
HOP-18 = system: HOP-18
A549 = system: A549
HT-29 = system: HT-29
TK-10 = system: TK-10
NCI-H23 = system: NCI-H23
EKVX = system: EKVX
DLD-1 = system: DLD-1
MCF7 = system: MCF7
NCI/ADR-RES = system: NCI/ADR-RES
SW-620 = system: SW-620
LXFL 529 = system: LXFL 529
SR = system: SR

Compound: CCCCOC(=O)C1C2CCC(O2)C1C(=O)OCCCC (stereo not drawn)
- GI50 (NCI-H226): > 100 µM (inactive)
- GI50 (KM12): > 100 µM (inactive)
- GI50 (CCRF-CEM): > 100 µM (inactive)
- GI50 (K562): > 100 µM (inactive)
- GI50 (OVCAR-4): > 87.1 µM (inactive)
- GI50 (HOP-92): > 100 µM (inactive)
- GI50 (SK-MEL-2): > 100 µM (inactive)
- GI50 (SK-MEL-28): > 96.8 µM (inactive)
- GI50 (LOX IMVI): > 44.8 µM (inactive)
- GI50 (OVCAR-3): > 100 µM (inactive)
- GI50 (KM-20L2): > 42.3 µM (inactive)
- GI50 (HCT-116): > 45.6 µM (inactive)
- GI50 (NCI-H522): > 100 µM (inactive)
- GI50 (OVCAR-5): > 89.9 µM (inactive)
- GI50 (CAKI-1): > 100 µM (inactive)
- GI50 (786-0): > 44.8 µM (inactive)
- GI50 (HCC 2998): > 62.7 µM (inactive)
- GI50 (IGROV-1): > 100 µM (inactive)
- GI50 (U-251): > 65.6 µM (inactive)
- GI50 (HL-60): > 100 µM (inactive)
- GI50 (UACC-257): > 55.1 µM (inactive)
- GI50 (RPMI-8226): > 49.9 µM (inactive)
- GI50 (HOP-62): > 100 µM (inactive)
- GI50 (ACHN): > 100 µM (inactive)
- GI50 (DMS-114): > 39.4 µM (inactive)
- GI50 (SK-MEL-5): > 100 µM (inactive)
- GI50 (OVCAR-8): > 100 µM (inactive)
- GI50 (SK-OV-3): > 100 µM (inactive)
- GI50 (M14): > 52.1 µM (inactive)
- GI50 (SNB-75): > 100 µM (inactive)
- GI50 (RXF 393): > 61.9 µM (inactive)
- GI50 (UO-31): > 100 µM (inactive)
- GI50 (MOLT-4): > 83.4 µM (inactive)
- GI50 (SNB-19): > 100 µM (inactive)
- GI50 (XF498): > 100 µM (inactive)
- GI50 (A498): > 100 µM (inactive)
- GI50 (SN12C): > 73.3 µM (inactive)
- GI50 (SF-295): > 100 µM (inactive)
- GI50 (SF-539): > 76.6 µM (inactive)
- GI50 (UACC-62): > 100 µM (inactive)
- GI50 (DMS-273): > 100 µM (inactive)
- GI50 (HCT-15): > 65.2 µM
- GI50 (NCI-H460): 4.17 µM (inactive)
- GI50 (SNB-78): > 100 µM (inactive)
- GI50 (COLO 205): > 42.5 µM (inactive)
- GI50 (SF-268): > 55.8 µM (inactive)
- GI50 (Malme-3M): > 100 µM (inactive)
- GI50 (M19-MEL): > 61.2 µM (inactive)
- GI50 (HOP-18): > 100 µM (inactive)
- GI50 (A549): > 45.4 µM (inactive)
- GI50 (HT-29): > 45.7 µM (inactive)
- GI50 (TK-10): > 100 µM (inactive)
- GI50 (NCI-H23): > 100 µM (inactive)
- GI50 (EKVX): > 100 µM (inactive)
- GI50 (DLD-1): > 53.7 µM (inactive)

Compound: COc1cc2c(oc(=O)c3cc(C)cc(OC)c32)c2c(C3OC(C)C(O)C(C)(O)C3O)ccc(O)c12 (stereo not drawn)
- GI50 (NCI-H226): 0.376 µM (active)
- GI50 (KM12): 0.771 µM (active)
- GI50 (CCRF-CEM): 0.0955 µM (active)
- GI50 (K562): 0.277 µM (active)
- GI50 (OVCAR-4): 0.467 µM (active)
- GI50 (HOP-92): 0.745 µM (active)
- GI50 (SK-MEL-2): 0.794 µM (active)
- GI50 (SK-MEL-28): 0.861 µM (active)
- GI50 (LOX IMVI): 0.32 µM (active)
- GI50 (OVCAR-3): 0.785 µM (active)
- GI50 (KM-20L2): 0.664 µM (active)
- GI50 (HCT-116): 0.216 µM (active)
- GI50 (NCI-H522): 0.389 µM (active)
- GI50 (OVCAR-5): 0.681 µM (active)
- GI50 (CAKI-1): 0.432 µM (active)
- GI50 (HCC 2998): 0.665 µM (active)
- GI50 (IGROV-1): 0.815 µM (active)
- GI50 (U-251): 0.335 µM (active)
- GI50 (HL-60): 0.045 µM (active)
- GI50 (UACC-257): 0.731 µM (active)
- GI50 (RPMI-8226): 0.454 µM (active)
- GI50 (MCF7): 0.237 µM (active)
- GI50 (HOP-62): 0.284 µM (active)
- GI50 (DMS-114): 0.315 µM (active)
- GI50 (SK-MEL-5): 0.581 µM (active)
- GI50 (OVCAR-8): 0.256 µM (active)
- GI50 (SK-OV-3): 1.18 µM (inactive)
- GI50 (SNB-75): 0.571 µM (active)
- GI50 (RXF 393): 0.38 µM (active)
- GI50 (UO-31): 1.04 µM (active)
- GI50 (MOLT-4): 0.075 µM (active)
- GI50 (NCI/ADR-RES): 0.622 µM (active)
- GI50 (SW-620): 0.312 µM (active)
- GI50 (SNB-19): 0.562 µM (active)
- GI50 (XF498): 0.37 µM (active)
- GI50 (A498): 0.465 µM (active)
- GI50 (SN12C): 0.402 µM (active)
- GI50 (SF-295): 0.358 µM (active)
- GI50 (SF-539): 0.466 µM (active)
- GI50 (UACC-62): 0.414 µM (active)
- GI50 (DMS-273): 0.336 µM (active)
- GI50 (HCT-15): 0.662 µM
- GI50 (NCI-H460): 0.142 µM (active)
- GI50 (SNB-78): 0.755 µM (active)
- GI50 (COLO 205): 0.551 µM (active)
- GI50 (SF-268): 0.349 µM (active)
- GI50 (Malme-3M): 0.673 µM (active)
- GI50 (M19-MEL): 0.706 µM (active)
- GI50 (HOP-18): 1.41 µM (inactive)
- GI50 (A549): 0.439 µM (active)
- GI50 (HT-29): 0.463 µM (active)
- GI50 (NCI-H23): 0.223 µM (active)
- GI50 (EKVX): 0.776 µM (active)
- GI50 (DLD-1): 0.845 µM (active)

Compound: O=c1c(-c2ccccc2)c2oc(c1-c1ccccc1)CS(=O)(=O)CCC2
- GI50 (NCI-H226): 18.5 µM (inactive)
- GI50 (KM12): 32.2 µM (inactive)
- GI50 (CCRF-CEM): 23.8 µM (inactive)
- GI50 (K562): 31.1 µM (inactive)
- GI50 (HOP-92): > 100 µM (inactive)
- GI50 (SK-MEL-2): > 100 µM (inactive)
- GI50 (SK-MEL-28): 17.5 µM (inactive)
- GI50 (LOX IMVI): 20.2 µM (inactive)
- GI50 (OVCAR-3): 22.6 µM (inactive)
- GI50 (HCT-116): 12.7 µM (inactive)
- GI50 (NCI-H522): 9.98 µM (inactive)
- GI50 (CAKI-1): 28.8 µM (inactive)
- GI50 (786-0): 19.8 µM (inactive)
- GI50 (HCC 2998): > 10 µM (inactive)
- GI50 (IGROV-1): 45 µM (inactive)
- GI50 (HL-60): 25.6 µM (inactive)
- GI50 (UACC-257): 28.8 µM (inactive)
- GI50 (RPMI-8226): 26.9 µM (inactive)
- GI50 (LXFL 529): 17.7 µM (inactive)
- GI50 (HOP-62): 42.6 µM (inactive)
- GI50 (ACHN): 29 µM (inactive)
- GI50 (DMS-114): 39.5 µM (inactive)
- GI50 (SK-MEL-5): 27.7 µM (inactive)
- GI50 (OVCAR-8): 36.8 µM (inactive)
- GI50 (SK-OV-3): > 100 µM (inactive)
- GI50 (RXF 393): 13.8 µM (inactive)
- GI50 (MOLT-4): 24.2 µM (inactive)
- GI50 (SW-620): 32.7 µM (inactive)
- GI50 (SNB-19): > 100 µM (inactive)
- GI50 (SR): 23.3 µM (inactive)
- GI50 (XF498): 5.97 µM (inactive)
- GI50 (SN12C): 16.9 µM (inactive)
- GI50 (SF-295): > 100 µM (inactive)
- GI50 (SF-539): 18.2 µM (inactive)
- GI50 (UACC-62): 21.5 µM (inactive)
- GI50 (DMS-273): 22.5 µM (inactive)
- GI50 (HCT-15): 15.6 µM
- GI50 (NCI-H460): 31.6 µM (inactive)
- GI50 (COLO 205): 21 µM (inactive)
- GI50 (SF-268): 21.9 µM (inactive)
- GI50 (Malme-3M): 49.4 µM (inactive)
- GI50 (M19-MEL): 17 µM (inactive)
- GI50 (HOP-18): < 0.01 µM (active)
- GI50 (A549): 57.3 µM (inactive)
- GI50 (HT-29): 25.5 µM (inactive)
- GI50 (TK-10): 37.5 µM (inactive)
- GI50 (NCI-H23): 17.6 µM (inactive)
- GI50 (EKVX): > 100 µM (inactive)
- GI50 (DLD-1): 21.6 µM (inactive)
